{
  "source": "patent US9115072B2",
  "about": "“Compounds and method for reducing uric acid” (WELLSTAT THERAPEUTICS CORPORATION, priority 2008, dated 2015)",
  "key": {"[1]": {"system": "healthy, normal men and women", "test": "Single oral dose clinical study, blood/plasma uric acid levels (Examples 1 and 4)", "assay_type": "in vivo, human", "details": "for Mean Percent Change (blood uric acid levels): before vs 24 hours after administration", "method": "Five groups of 4 healthy, normal men and women received a single, oral administration of escalating doses of Compound BI (n=3 per group) or placebo capsules (n=1 per group) in a randomized, double blind clinical study. Blood uric acid levels were measured before and 24 hours after administration of study treatment. Compound BI was administered at doses of 50, 100, 200, 400 or 800 mg.\nPlasma samples taken immediately prior to and at 1, 2, 4, 6, 12 and 24 hours after a single, oral administration of a test compound to 4 healthy, normal men and women in each of three groups as described above in Example 1 were analyzed to determine uric acid levels. Compound BI (n=3 per group) or placebo capsules (n=1 per group) were administered in a randomized, double blind clinical study. Plasma samples taken at the time points indicated from patients receiving Compound BI at doses of 200, 400 or 800 mg were stored at −70° C. and analyzed at a later time."}, "[2]": {"system": "healthy normal men and women", "test": "Seven-day once/twice daily dosing clinical study, blood/plasma uric acid levels (Examples 2 and 5)", "assay_type": "in vivo, human", "details": "for Percent Change in Uric Acid Levels Following a Single Administration of Study Treatment, Mean Percent Change: 24 hours after the first administration; for Percent Change in Uric Acid Levels Following a Daily Administration of Study Treatment for Seven Days, Mean Percent Change: after 7 consecutive days; for Effect on blood uric acid levels (in words): 400 mg twice per day or 800 mg once per day groups", "method": "Two groups of 8 healthy normal men and women received oral administration of either 800 mg Compound BI once per day (n=6 per group) or 400 mg Compound BI twice per day (n=6 per group) or placebo capsules (n=2 per group) in a randomized, double blind clinical study. Blood uric acid levels were measured before administration of study treatment, 24 hours after the first administration of study treatment and after 7 consecutive days of study treatment administration.\nSixteen men and women participating in a clinical study were randomly assigned to receive either placebo capsules (n=4 subjects), 400 mg Compound BI twice per day (n=6 subjects), or 800 mg Compound BI once per day (n=6 subjects) for seven consecutive days. Plasma samples taken prior to (Time 0) and at 1, 2, 4, 9, 11, 13, 18 and 24 hours after the initial administration of the test article on Day 7 of the study were stored at −70° C. and later analyzed for uric acid. (This Example 5 is a continuation of the experiment described in Example 2.)"}, "[3]": {"system": "mice treated with the uricase inhibitor potassium oxonate", "test": "Uric acid excretion in urine of mice treated with the uricase inhibitor potassium oxonate", "assay_type": "in vivo, mouse", "details": "for Urine Uric Acid: urine collected between 3 and 5 hours after drug; for Effect on uric acid in urine versus the Oxonate control group (in words): urine collected between 3 and 5 hours after drug administration", "excerpt": "The model to induce hyperuricemia involves the use of the uricase (urate oxidase) inhibitor potassium oxonate that causes a delay in the degradation of uric acid to allantoin. Humans have little or no uricase activity, so inhibition of this enzyme with potassium oxonate makes mouse uric acid processing more similar to that of humans. Male 11-week old C57/B16 mice (Harlan, Frederick, Md.) were used in the studies (8 per experimental group). Mice were receiving standard rodent chow that was removed one hour before administration of potassium oxonate. Mice were given an intraperitoneal injection (i.p.) of potassium oxonate (300 mg/kg) that was suspended in 0.5% hydroxypropylmethylcellulose (HPMC). […] Urine collection was performed at 1, 3 and 5 hours after drug treatments and uric acid was measured with a colorimetric assay (BioVision Research Products, Mountain View, Calif.)."}, "human URAT1": {"target": "T1, human URAT1 (Homo sapiens, UniProt Q96S37)", "T1 construct": "The full-length hURAT1 cDNA was obtained from the vector pCMV6-XL5 and subcloned into the expression vector pCMV6-Neo", "T1 sequence (Q96S37 1-553)": "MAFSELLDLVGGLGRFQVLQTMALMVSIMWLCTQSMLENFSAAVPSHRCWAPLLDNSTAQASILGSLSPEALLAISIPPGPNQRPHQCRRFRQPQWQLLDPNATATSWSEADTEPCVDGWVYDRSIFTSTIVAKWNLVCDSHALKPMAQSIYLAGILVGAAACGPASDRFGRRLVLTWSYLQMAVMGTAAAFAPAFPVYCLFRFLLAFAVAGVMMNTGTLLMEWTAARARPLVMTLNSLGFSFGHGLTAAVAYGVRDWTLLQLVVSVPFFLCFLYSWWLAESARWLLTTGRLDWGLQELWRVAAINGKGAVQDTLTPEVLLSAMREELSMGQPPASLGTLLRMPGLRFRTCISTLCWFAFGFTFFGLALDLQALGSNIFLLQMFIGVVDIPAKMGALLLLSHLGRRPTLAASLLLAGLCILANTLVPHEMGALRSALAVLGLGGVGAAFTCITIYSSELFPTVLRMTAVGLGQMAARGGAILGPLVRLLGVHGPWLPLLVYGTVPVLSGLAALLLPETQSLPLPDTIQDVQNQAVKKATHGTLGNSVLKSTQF", "test": "URAT1 inhibition assay, [8-14C] urate uptake in hURAT1-HEK cells", "assay_type": "cell-based", "details": "50 μM [8-14C] urate", "method": "A suitable assay involves transfection of cells (e.g. human embryonic kidney cells; “HEK”) with a vector encoding human URAT1, followed by determination of the ability of transfected cells to take up radiolabeled uric acid. The activity of compounds as URAT1 inhibitors is evaluated by their ability to block uric acid uptake by transfected cells.\nUrate (50-60 mCi/mmol; American Radio Chemicals, Cat. No. ARC0513).\nPlasmid vector pCMV6-XL5 containing hURAT1 cDNA (Cat. No. SC125624) and the expression vector pCMV6-Neo (Cat. No. pCMVNEO) were obtained from OriGene Technologies, Inc. The full-length hURAT1 cDNA was obtained from the vector pCMV6-XL5 and subcloned into the expression vector pCMV6-Neo to create the hURAT1 expression plasmid pCMV6-hURAT1. The sequences were verified by automatic DNA sequencing.\nFor transfection experiments, cells were plated on 60 mm dishes in 1 ml media per dish. […] Stable transfectants expressing hURAT1 (herein after referred as hURAT1-HEK cells) or cells having only the expression vector pCMV6-Neo (herein after referred as mock-HEK cells) were verified using reverse transcription polymerase chain reaction (RT-PCR) methods.\nBefore the uptake assay started, the culture medium was removed and the cells were incubated for 5 min in 0.6 ml of HBSS. After that HBSS was removed, the prepared reaction solutions were added into each well and incubated for 5 min at room temperature. Then the reaction solution was removed, cells were washed twice with 0.6 ml of cold HBSS and lysed with 0.2 ml of 0.1 M NaOH for 20 min. […] Test compounds were dissolved in DMSO and the same concentration of DMSO was added into the wells of mock-HEK cells and the hURAT1-HEK cells that didn't contain test compounds. For each test compound, the uptake assay was performed 2 times and carried out in triplicate. Urate uptake of the cells for each test condition was presented as the average percent inhibition in comparison to the DMSO control. The radioactivity values obtained for the wells that contained DMSO were taken as 100% uptake of the cells. The observed concentration-percent inhibition data were fitted to a sigmoidal concentration-effect model, where: IC50^Slope=[(100*Conc^Slope)/% Inhibition]−Conc^Slope\nAdditional drug concentrations were tested for determination of IC-50 values for some compounds (Table 6)."}, "[4]": {"details": "100 mg/kg p.o. after oxonate 300 mg/kg i.p."}},
  "data": [
    {"smiles": "Cc1cccc(C)c1COc1cccc(C(=O)CCC(=O)O)c1", "note": "[Compound BI, 4-(3-(2,6-Dimethylbenzyloxy)phenyl)-4-oxobutyric acid]", "values": [
      {"measurement": "Effect on plasma uric acid levels over 24 hours (in words)", "setting": "[1]; single dose 200, 400 or 800 mg, FIG. 2", "result": "significant, dose-dependent reductions"},
      {"measurement": "Mean Percent Change (blood uric acid levels)", "setting": "[1]; single oral dose 50 mg", "result": "−8.8", "unit": "%"},
      {"measurement": "Mean Percent Change (blood uric acid levels)", "setting": "[1]; single oral dose 100 mg", "result": "−13.4", "unit": "%"},
      {"measurement": "Mean Percent Change (blood uric acid levels)", "setting": "[1]; single oral dose 200 mg", "result": "−18.9", "unit": "%"},
      {"measurement": "Mean Percent Change (blood uric acid levels)", "setting": "[1]; single oral dose 400 mg", "result": "−35.0", "unit": "%"},
      {"measurement": "Mean Percent Change (blood uric acid levels)", "setting": "[1]; single oral dose 800 mg", "result": "−32.7", "unit": "%"},
      {"measurement": "Effect on blood uric acid levels (in words)", "setting": "[1]; single oral dose 50, 100, 200, 400 or 800 mg, 24 hours", "result": "significant, dose-dependent reduction"},
      {"measurement": "Percent Change in Uric Acid Levels Following a Single Administration of Study Treatment, Mean Percent Change", "setting": "[2]; 400 mg bid", "result": "−54.0", "unit": "%"},
      {"measurement": "Percent Change in Uric Acid Levels Following a Daily Administration of Study Treatment for Seven Days, Mean Percent Change", "setting": "[2]; 400 mg bid", "result": "−56.7", "unit": "%"},
      {"measurement": "Plasma uric acid levels at Time 0 on Day 7 compared to Time 0 on the first day and to placebo (in words)", "setting": "[2]; 400 mg twice per day or 800 mg once per day for seven days, FIG. 3", "result": "significantly reduced"},
      {"measurement": "Percent Change in Uric Acid Levels Following a Single Administration of Study Treatment, Mean Percent Change", "setting": "[2]; 800 mg qd", "result": "−45.3", "unit": "%"},
      {"measurement": "Percent Change in Uric Acid Levels Following a Daily Administration of Study Treatment for Seven Days, Mean Percent Change", "setting": "[2]; 800 mg qd", "result": "−53.2", "unit": "%"},
      {"measurement": "Effect on blood uric acid levels (in words)", "setting": "[2]; daily administration for 7 days", "result": "significant reduction"},
      {"measurement": "Effect on blood uric acid levels (in words)", "setting": "[2]; single dose", "result": "significant reduction"},
      {"measurement": "Urine Uric Acid", "setting": "[3]; [4]", "result": 293, "unit": "mg/dL"},
      {"measurement": "Effect on uric acid in urine versus the Oxonate control group (in words)", "setting": "[3]", "result": "significant increase in excreted uric acid"},
      {"measurement": "IC50", "setting": "human URAT1", "result": 950, "unit": "nM"},
      {"measurement": "inhibition at 10 µM", "setting": "human URAT1; drug concentration typically 10 micromolar, read-out: % of Inhibition (uric acid uptake)", "result": 86.1, "unit": "%"}
    ]},
    {"smiles": "CCc1oc2ccccc2c1C(=O)c1cc(Br)c(O)c(Br)c1", "note": "[Benzbromarone]", "values": [
      {"measurement": "Urine Uric Acid", "setting": "[3]; 30 mg/kg p.o. after oxonate 300 mg/kg i.p.", "result": 185, "unit": "mg/dL"},
      {"measurement": "Urine Uric Acid", "setting": "[3]; [4]", "result": 173, "unit": "mg/dL"},
      {"measurement": "Effect on uric acid in urine versus the Oxonate control group (in words)", "setting": "[3]", "result": "induced an increase in uric acid concentration in urine, though to lesser degree than Compound BI"}
    ]},
    {"smiles": "Oc1ncnc2[nH]ncc12", "note": "[Allopurinol]", "values": [
      {"measurement": "Urine Uric Acid", "setting": "[3]; 20 mg/kg p.o. after oxonate 300 mg/kg i.p.", "result": 79, "unit": "mg/dL"},
      {"measurement": "Effect on uric acid in urine versus the Oxonate control group (in words)", "setting": "[3]", "result": "reduced the concentration of uric acid in urine"}
    ]}
  ]
}
